Source: patent US7875287B2, “Tc-labeled arylpiperazine derivatives for imaging serotonin receptor” (Korea Atomic Energy Research Institute, priority 2005, dated 2011)

How the values were obtained:
[1] = Paper electrophoresis in 0.1 M phosphate buffer (pH7.4); assay type: physicochemical; conditions: aqueous solution, 0.1 M phosphate buffer pH7.4, 45 min, 400 V (20 V/cm)
Experimental: Filtered preparation was applied on a paper eluted with 0.1 M phosphate buffer (pH7.4) for 45 min. at a 400 V (20 V/cm).

[2] = Static image scan of rabbits after intravenous injection; assay type: in vivo, male New Zealand white rabbits; conditions: rabbit, image 5 min after injection
Experimental: Static image of male New Zealand white rabbits scanned at 5 and 10 min.
At an image of 5 min. after the injection, high activity was found in the liver. A trace amount of ^99mTc-8-[3-({2-[4-(2-methoxy-phenyl)-piperazin-1-yl]-ethyl}-pyridin-2-yl-amino)-propyl]-[1,2,5,8]dithiadiazecan-6-one (25) seemed to be remained in the brain.

[3] = Stability of 99mTc-complex by reversed phase HPLC; assay type: physicochemical; conditions: for approximately 4 hours; reaction mixture, RP-HPLC
Experimental: Radiochemical purity of ^99mTc-complex (25) was determined by HPLC using a C-18 reverse-phase column as a stationary phase and a water/ACN as a mobile phase, while maintaining a flow rate of 1 ml/min.
The complex is stable (>90%) for approximately 4 hours.

- charge observed in paper electrophoresis [1]: neutral charge
- activity in the liver on image [2]: high activity
- amount remained in the brain on image [2]: trace amount
- stability of the complex [3]: > 90%
Substance: ^99mTc-8-[3-({2-[4-(2-methoxy-phenyl)-piperazin-1-yl]-ethyl}-pyridin-2-yl-amino)-propyl]-[1,2,5,8]dithiadiazecan-6-one [Compound 25]
